Data taken from patent US20230133251A1, “ADMINISTRATION OF mTOR INHIBITORS INTO THE CENTRAL NERVOUS SYSTEM” (priority 2020, published 2023).

What was measured:
[1] = Evaluation of stability by HPLC analysis of everolimus samples stored at 37, 25 and 4° C.; assay type: physicochemical
Method: Everolimus (Selleck Chemicals, Aurogene, Rome, Italy) was dissolved in DMSO (VWR, Milan, Italy) at a concentration of 1 mg/ml. The everolimus solution was subsequently diluted in 10% v/v DMSO/saline solution until obtaining a final concentration of 10 μg/ml. The resulting solution was then incubated at 4, 25 and 37° C.
Carefully weighed amounts of everolimus and distearoylphosphoethanolam ine-polyethylene glycol 2000 (DSPE-PEG2000, Lipoid, Switzerland) were dissolved in 3 ml of chloroform (Sigma-Aldrich, Milan, Italy) in a 50 ml flask. The solvent was removed by light evaporation at room temperature under a flow of nitrogen and vacuum dried for 1 hour to eliminate residual traces. The thin film obtained was reconstituted in an exact volume (3 mL) of aqueous medium. After complete reconstitution a clear micellar dispersion was obtained. The dispersion was then incubated at 4, 25 and 37° C.
The drug was quantified using the HPLC method. Briefly, the instrument used is a Portlab STAYER HPLC system equipped with a UV detector, a parallel pump and Triathlon autosampler (Portlab, Rome, Italy). The conditions used are the following: isocratic mode with acetonitrile:water (60:40, v/v) eluted at 0.8 ml/min and a Zorbax C8 column, 4.6 mm ID×250 mm, 5 μm (Agilent, Milan, Italy) equilibrated at 55° C. UV detection was performed at 278 nm. A calibration curve was constructed in the concentration interval of 0.62-10 μg/mL (r^2=0.9992).
The samples of solution were injected directly (injection volume 15 μL), whereas the micellar suspension was diluted 200 times in DMSO before being subjected to analysis. In order to reduce the carryover effects and an excessive accumulation of lipids in the column, samples of solution and micelles were injected alternately. The column was periodically washed with chloroform and methanol to avoid the accumulation of lipids and impairment of performance. All measurements were performed in triplicate and the results were expressed as the mean±D.S.

HeLa cells = experiment: MTT proliferation assay, activity of stored everolimus samples; assay type: cell-based; conditions: for day of drastic decrease in anti-proliferative activity: tested at 5 nM
Method: (§1) Both HeLa cells (cervical cancer cell line) and SH-SY5Y cells (neuroblastoma cell line) were obtained from the American Type Culture Collection (Manassas, Va., USA) and cultured in Dulbecco's Modified Eagle's medium (DMEM with L-glutamine) supplemented with 10% (v/v) heat-inactivated foetal bovine serum (FBS), 100 U of penicillin, 100 U of streptomycin in a 5% CO2 humidified incubator at 37° C. Cell viability was verified with the standard Trypan Blue method.
(§2) The activity of everolimus in organic solution and in the micelles was determined by evaluating cell proliferation after the treatment. Briefly, the HeLa and SH-SY5Y cells were seeded in a 96-well plate at a concentration of 3000 cells/well and 6000 cells/well, respectively, and were maintained in the culture medium (100 μl) for 24 hours. After incubation at 37, 25 and 4° C. for 7, 14, 35, 50 and 77 days, the samples were suspended in the cell culture medium at a final concentration of 5 nM. Untreated cells, cells treated with a 10% v/v DMSO/saline solution (Veh) and empty micelles in saline solution, both diluted in a manner equivalent to the drug, were analysed as controls. A freshly prepared everolimus solution was used as the reference standard. Cell proliferation was evaluated using the 3-[4,5-dimethylthiazol-2-yl]-2,5-diphenyltetrazolium (MTT) assay (Sigma-Aldrich) according to the manufacturer's manual. The cells were mixed with 10 μl of MTT (0.5 mg/ml) and kept in a humidified incubator at 37° C. for 4 hours. Subsequently, 100 μl of a solubilisation solution (10% SDS with 0.01 N HCl) were added to each well. Formazan crystal solubilisation was carried out overnight in an incubator a 37° C. The next day, cell proliferation was evaluated by means of spectrophotometric readings taken with a Beckman Coulter DTX 880 multimode detector (Beckman Coulter Inc., Brea, Calif., USA) using a line at 589 nm and reference at 650 nm.
(§3) In order to correlate the stability of everolimus with the preservation of activity, samples incubated under the same conditions as in the stability study were dosed in HeLa and SH-SY5Y cells at established points in time. For this test the cell lines were seeded and maintained for 24 hours at 37° C. prior to treatment. […] The activity of the solution, by contrast, began to wane at 35 days, confirming a prolonged effect of inhibition of the micelles on cell proliferation. […] In order to better quantify the differences among the various samples in terms of the residual activity of everolimus, the residual anti-proliferative activity was calculated and is shown in FIGS. 3A and 3B.

SH-SY5Y cells = experiment: as above; assay type: cell-based; conditions: for day of drastic decrease in anti-proliferative activity: tested at 5 nM
Method: as §1, §2, §3

day by which everolimus had decayed (HPLC) ([1]; stored at 4° C.): ≤ 50 days
day by which everolimus had decayed (HPLC) ([1]; stored at 25° C.): ≤ 35 days
day by which everolimus had fallen to zero / decayed (HPLC) ([1]; stored at 37° C.): ≤ 14 days
Structure (SMILES): CO[C@H]1C[C@@H]2CC[C@@H](C)[C@@](O)(O2)C(=O)C(=O)N2CCCC[C@H]2C(=O)O[C@H]([C@H](C)C[C@@H]2CC[C@@H](OCCO)[C@H](OC)C2)CC(=O)[C@H](C)/C=C(\C)[C@@H](O)[C@@H](OC)C(=O)[C@H](C)C[C@H](C)/C=C/C=C/C=C/1C [solution, Everolimus]
day at which activity began to wane (HeLa cells; 5 nM): 35 days
day of drastic decrease in anti-proliferative activity (HeLa cells; sample stored at 4° C.): 50 days
day of drastic decrease in anti-proliferative activity (HeLa cells; sample stored at 25° C.): 35 days
day of drastic decrease in anti-proliferative activity (HeLa cells; sample stored at 37° C.): 14 days
day at which activity began to wane (SH-SY5Y cells; 5 nM): 35 days
day of drastic decrease in anti-proliferative activity (SH-SY5Y cells; sample stored at 4° C.): 50 days
day of drastic decrease in anti-proliferative activity (SH-SY5Y cells; sample stored at 25° C.): 35 days
day of drastic decrease in anti-proliferative activity (SH-SY5Y cells; sample stored at 37° C.): 14 days
